According to ChEMBL document CHEMBL1128544, “2-[N'-(3-arylallylidene)hydrazino]adenosines showing A2a adenosine agonist properties and vasodilation activity” (J Med Chem, 1995):

Key:
Adenosine receptor A1 [1] = target: T1, Adenosine receptor A1 (Rattus norvegicus, UniProt P25099); experiment: Activity at Adenosine A1 receptor of rat atria; type: functional
T1 sequence (P25099 whole entry): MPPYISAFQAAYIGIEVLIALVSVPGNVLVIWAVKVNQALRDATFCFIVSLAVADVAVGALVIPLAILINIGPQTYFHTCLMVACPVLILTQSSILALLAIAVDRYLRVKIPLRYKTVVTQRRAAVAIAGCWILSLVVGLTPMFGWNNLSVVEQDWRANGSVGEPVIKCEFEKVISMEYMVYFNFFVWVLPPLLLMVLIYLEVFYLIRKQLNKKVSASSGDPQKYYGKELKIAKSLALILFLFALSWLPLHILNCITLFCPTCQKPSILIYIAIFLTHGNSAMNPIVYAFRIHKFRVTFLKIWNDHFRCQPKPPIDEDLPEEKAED

Adenosine receptor A1 [2] = target: T1, Adenosine receptor A1
Description: Displacement of [3H]CHA from Adenosine A1 receptor of rat brain

Adenosine receptor A2a [3] = target: T2, Adenosine receptor A2a (Rattus norvegicus, UniProt P30543)
Adenosine receptor A2a [4] = target: T2, Adenosine receptor A2a; remark: listed apart in the source
Description: Functional activity at Adenosine A2A receptor as vasorelaxation of rat aorta

T2 sequence (P30543 whole entry): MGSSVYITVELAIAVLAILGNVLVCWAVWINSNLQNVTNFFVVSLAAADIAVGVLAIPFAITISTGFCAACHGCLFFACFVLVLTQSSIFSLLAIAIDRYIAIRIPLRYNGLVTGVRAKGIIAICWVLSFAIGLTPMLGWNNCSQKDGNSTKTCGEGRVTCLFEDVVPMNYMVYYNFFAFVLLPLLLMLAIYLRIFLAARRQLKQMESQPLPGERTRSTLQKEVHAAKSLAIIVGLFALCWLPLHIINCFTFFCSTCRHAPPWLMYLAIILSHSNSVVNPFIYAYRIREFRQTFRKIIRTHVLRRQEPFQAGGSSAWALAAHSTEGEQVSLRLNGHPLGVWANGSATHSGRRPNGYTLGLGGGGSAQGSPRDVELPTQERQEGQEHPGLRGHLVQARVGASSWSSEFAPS

| SMILES | EC50 (Adenosine receptor A1 [1]) [nM] | Ki (Adenosine receptor A1 [2]) [nM] | Ki (Adenosine receptor A2a [3]) [nM] | EC50 (Adenosine receptor A2a [4]) [nM] |
| --- | --- | --- | --- | --- |
| Nc1nc(N/N=C/C=C(c2ccccc2)c2ccccc2)nc2c1ncn2[C@@H]1O[C@H](CO)[C@@H](O)[C@H]1O | > 1860 | 64 | > 1000 | 704 |
| CN(C)c1ccc(/C=C/C=N/Nc2nc(N)c3ncn([C@@H]4O[C@H](CO)[C@@H](O)[C@H]4O)c3n2)cc1 | 866 | 101 | 170 | 728 |
| COc1ccccc1/C=C/C=N/Nc1nc(N)c2ncn([C@@H]3O[C@H](CO)[C@@H](O)[C@H]3O)c2n1 | 1970 | 264 | 384 | 529 |
| Nc1nc(N/N=C/C=C/c2ccco2)nc2c1ncn2[C@@H]1O[C@H](CO)[C@@H](O)[C@H]1O | 4340 | 1670 | 83 | 800 |
| Nc1nc(N/N=C/C=C/c2ccc([N+](=O)[O-])cc2)nc2c1ncn2[C@@H]1O[C@H](CO)[C@@H](O)[C@H]1O | > 10000 | 524 | 23 | 482 |
| Nc1nc(N/N=C/C=C/c2ccccc2[N+](=O)[O-])nc2c1ncn2[C@@H]1O[C@H](CO)[C@@H](O)[C@H]1O | > 10000 | 935 | 54 | 638 |
| COc1cc(/C=C/C=N/Nc2nc(N)c3ncn([C@@H]4O[C@H](CO)[C@@H](O)[C@H]4O)c3n2)ccc1O | 4890 | 545 | 27 | 281 |
| COc1ccc(/C=C/C=N/Nc2nc(N)c3ncn([C@@H]4O[C@H](CO)[C@@H](O)[C@H]4O)c3n2)cc1 | > 10000 | 425 | 59 | 677 |
| Nc1nc(N/N=C/C=C/c2ccccc2)nc2c1ncn2[C@@H]1O[C@H](CO)[C@@H](O)[C@H]1O | > 10000 | 1050 | 38 | 269 |
| Nc1nc(N/N=C/c2ccco2)nc2c1ncn2[C@@H]1O[C@H](CO)[C@@H](O)[C@H]1O | > 10000 | 1850 | 42 | 195 |
| Cc1ccc(/C=N/Nc2nc(N)c3ncn(C4O[C@H](CO)[C@@H](O)[C@H]4O)c3n2)cc1 (some centres undefined) | > 10000 | 1770 | 29 | 747 |
